Data reported in patent publication US20090075313A1, “Split protein fragments, split protein systems, methods of making split protein systems, and methods of using split protein systems” (Stanford University, priority 2007, published 2009).
Like-named read-outs stand apart in the source and are kept apart here.

Columns and labels:
[1] = biological target: FM (F36M) mutant FKBP12 (Homo sapiens, UniProt P62942, F37M)
Text: (§1) Twenty-four hours later we added FK506 to these cells and, using an in vitro [8-^3H]Penciclovir cell uptake assay, measured either the time- or dose-dependent changes in homodimer dissociation and consequent diminished TK complementation.
as §1

[2] = biological target: FKBP12 (Homo sapiens, UniProt P62942); settings: stable 293T cells, with 40 nM rapamycin, 36 h
Sequence of FKBP12 (P62942 whole entry, added parts left off, the tested form may be a part): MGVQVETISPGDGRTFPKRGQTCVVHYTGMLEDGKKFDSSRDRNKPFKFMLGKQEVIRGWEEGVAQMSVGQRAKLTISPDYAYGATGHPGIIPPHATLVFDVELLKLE

[3] = system: human estrogen receptor ligand-binding domain (hER-LBD); test: intramolecular protein folding sensor (split TK fragments flanking ER-LBD), TK enzyme uptake in 293T cells; format: cell-based
Experimental: FIG. 2b illustrates a schematic diagram of the intramolecular folding sensor construct with the split TK fragments on either side of the estrogen receptor ligand binding domain (ER-LBD), and each construct was made by cloning into a pcDNA3.1 (+) plasmid backbone, under control of a CMV promoter. […] The error bar is the standard error of the mean for three samples.
All experiments were conducted with comparison to a positive control derived from the activity of intact TK, and a mock transfection acting as a negative control.

[4] = system: cells; settings: 40 nM of rapamycin per well; cited from earlier work
[5] = system: 293T cells stably expressing nTK(V119C)-FRB plus FKBP12-cTK; test: microPET imaging with [18F]-FHBG of subcutaneous 293T xenografts in living mice; format: in vivo
Text: The signal from each implant was quantified directly from the microPET images to determine the % ID/g for the FHBG probe. […] The animals were repeatedly imaged on day 1 (before rapamycin), day 2 (one dose post rapamycin) and day 5 (3 doses post rapamycin) of this imaging protocol, i.e. after 1 week of initial xenograft growth. […] In another group of 4 mice, xenografts expressing nTK(V119C)-FRB plus FKBP12-cTK were compared with control implants stably expressing nTK plus cTK only (also in a single vector).
All animal handling and care was performed in accordance with Stanford University Animal Research Committee guidelines. […] The cells were allowed to grow as tumors for 7 days (to ˜0.3-0.4 cm in diameter). On day 8 mice were tail vein injected with 200 μCi of [^18F]-FHBG after undergoing anesthesia with 2% isoflurane in oxygen at 2 L/min. Three hours later, mice were microPET imaged in a spread prone position in a FOCUS microPET scanner (Concorde Microsystems, Knoxville, Tenn.). […] Immediately after imaging the animals were intraperitoneally injected with 50 μg of rapamycin; 24 h later all the animals were re-subjected to microPET imaging as mentioned above. The animals were further injected with intraperitoneal 50 μg rapamycin for two more days at 24 h intervals and subjected to repeat microPET imaging. In a separate cohort of 4 control mice, the above temporal imaging studies were performed in an identical fashion except that no rapamycin was administered. […] This % ID/g is a measure of the amount of tracer accumulated in a given tissue site normalized to the injected amount and to the mass of the tissue examined. […] For statistical analysis, the 2-tailed Student t-test was used. Differences were considered significant at P<0.05.

[6] = biological target: FKBP12-cTK (human; herpes simplex virus type 1, UniProt P62942 1-108); test: cell-based or functional assay
[7] = biological target: HSV1-sr39TK (Human herpesvirus 1, UniProt Q9QNF7, A168F/F161L/I160F/L159I/L169M); test: self-complementation of split TK fragments without attached proteins, TK enzyme uptake in 293T cells; format: cell-based, herpes simplex virus type 1
Text: To confirm or refute this finding we performed a separate PCA study using another pair of known interacting proteins, after replacing FRB and FKBP12 with Id and MyoD respectively (FIG. 2a, and FIG. 12). […] We tested the interaction of Id and MyoD upon transient co-expression of the fusion proteins nTK-Id and MyoD-cTK in 293T cells, followed by an in vitro TK enzyme cellular uptake assay to detect dimerization-assisted complementation of the TK fragments. Again, this same orientation of chimeras using Id and MyoD was used previously in PCAs with split Firefly luciferase and Renilla luciferase. We compared this with complementation obtained using the previous chimeras containing FRB and FKBP12, before and after addition of rapamycin. As negative controls we also assayed for TK activity upon single- and co-expression of nTK and cTK fragments without any attached proteins to check whether any measured TK activity might originate in either the N-terminal or C-terminal fragments of TK alone, or perhaps by their spontaneous self-complementation even without attached proteins. The results, shown in FIG. 12, confirmed the findings described above using the FRB/FKBP12/rapamycin system (FIGS. 9, 10, 12).

[8] = 293T cells, 24 h treatment, P<0.05

Sequence of FM (F36M) mutant FKBP12 (P62942 whole entry F37M): as the sequence (P62942 whole entry, added parts left off, the tested form may be a part) above, with F37M counted along it

Molecule: CC[C@@H]1/C=C(\C)C[C@H](C)C[C@H](OC)[C@H]2O[C@@](O)(C(=O)C(=O)N3CCCC[C@H]3C(=O)O[C@H](/C(C)=C/[C@@H]3CC[C@@H](O)[C@H](OC)C3)[C@H](C)[C@@H](O)CC1=O)[C@H](C)C[C@@H]2OC [ascomycin]
- dissociation of complexes (fraction) ([1]; Five μM FK506, within 30 min): about two-thirds
- change of TK activity with increasing doses ([1]; up to 5 μM, after 24 hr of exposure): incremental reduction of TK activity
- effect of increasing concentration on TK complementation [2]: reduction in TK complementation
- smallest concentration required to initiate the competitive inhibition of rapamycin ([2]; 0 to 16 μM): 0.5 µM

Molecule: 4-hydroxytamoxifen [4-OHT]
- level of intramolecular-folding-assisted complementation versus carrier control-treated cells [3]: significantly higher

Molecule: CO[C@H]1C[C@@H]2CC[C@@H](C)[C@@](O)(O2)C(=O)C(=O)N2CCCC[C@H]2C(=O)O[C@H]([C@H](C)C[C@@H]2CC[C@@H](O)[C@H](OC)C2)CC(=O)[C@H](C)/C=C(\C)[C@@H](O)[C@@H](OC)C(=O)[C@H](C)C[C@H](C)/C=C/C=C/C=C/1C [rapamycin]
- toxicity to cells [4]: non-toxic

Molecule: CCCc1c(-c2ccc(O)cc2)nn(-c2ccc(O)cc2)c1-c1ccc(O)cc1 [PPT, 1,3,5-tris(4-hydroxyphenyl)-4-propyl-1H-pyrazole]
- level of intramolecular-folding-assisted complementation versus carrier control-treated cells [3, 8]: significantly higher

Molecule: Nc1nc2c(ncn2CCC(CO)C[18F])c(=O)[nH]1 (stereo not shown) [FHBG, 9-(4-[^18F]-fluoro-3-hydroxymethylbutyl)-guanine]
- probe % ID/g in shoulder tumors ([5]; animals imaged in the prone position): 1.02 % ID/g
- probe % ID/g in shoulder tumors ([5]; animals imaged in the supine position): 0.89 % ID/g
- FHBG accumulation in control tumors ([5]; control implants stably expressing nTK plus cTK only, fifth day, with rapamycin): minimal
- mean % ID/g for FHBG accumulation, background ([5]; mock transfected cells): 0.28±0.10 % ID/g
- mean % ID/g for FHBG accumulation ([5]; tumor of cells transfected with nTK(V119C)-FRB plus FKBP12-cTK, after 5 days of daily rapamycin): 4.37±1.74 % ID/g

Molecule: Cc1c(-c2ccc(O)cc2)nn(-c2ccc(O)cc2)c1-c1ccc(OCCN2CCCCC2)cc1 [MPP, methyl piperidinylethoxy pyrazole]
- level of intramolecular-folding-assisted complementation versus carrier control-treated cells [3, 8]: significantly higher

B1: nTK-FRB (other)
chain: MASYPCHQHASAFDQAARSRGHSNRRTALRPRRQQEATEVRLEQKMPTLLRVYIDGPHGMGKTTTTQLLVALGSRDDIVYVPEPMTYWRVLGASETIANIYTTQHRLDQGEISAGDAAVVMTSAQITMGMPYAVTDAVLAPHIGGEAGSSHAPPPALTLIFDRHPIAALLCYPAARYLMGSMTPQAVLAFVALIPPTLPGTNIVLGALPEDRHIDRLAKRQRPGERLDLAMLAAIRRVYGLLANTVRYLQCGGSWREDWGQLSGTGGGGSILWHEMWHEGLEEASRLYFGERNVKGMFEVLEPLHAMMERGPQTLKETSFNQAYGRDLMEAQEWCRKYMKSGNVKDLTQAWDLYYHVFRRISK
- complemented TK activity in the absence of rapamycin, against mock transfection, 293T cells [6]: 2.3 fold above mock transfection levels
- relative gain in complemented TK activity after rapamycin administration, 293T cells [6]: ~3 fold induction
- split TK complementation in SKBr3 human breast cancer cells, with rapamycin [6]: ~3 fold rise
- split TK complementation in SKOV3 human ovarian cancer cells, with rapamycin [6]: ~3 fold rise

B2: cTK: C-terminal TK fragment comprising the amino acids Ala-266 to Asn-376 (protein)
chain: AVTPQGAEPQSNAGPRPHIGETLFTLFRAPELLAPNGDLYNVFAWALDVLAKRLRPMHVFILDYDQSPAGCRDALLQLTSGMVQTHVTTPGSIPTICDLARTFAREMGEAH
- TK activity upon single- or co-expression of fragments without attached proteins [7]: no activity

B3: nTK: N-terminal TK fragment comprising the amino acids Met-1 to Thr-265 (protein)
chain: MASYPCHQHASAFDQAARSRGHSNRRTALRPRRQQEATEVRLEQKMPTLLRVYIDGPHGMGKTTTTQLLVALGSRDDIVYVPEPMTYWRVLGASETIANIYTTQHRLDQGEISAGDAAVVMTSAQITMGMPYAVTDAVLAPHIGGEAGSSHAPPPALTLIFDRHPIAALLCYPAARYLMGSMTPQAVLAFVALIPPTLPGTNIVLGALPEDRHIDRLAKRQRPGERLDLAMLAAIRRVYGLLANTVRYLQCGGSWREDWGQLSGT
- TK activity upon single- or co-expression of fragments without attached proteins [7]: no activity
